Measured values reported in ChEMBL document CHEMBL4184317, “Discovery of Tetrahydroquinoxalines as Bromodomain and Extra-Terminal Domain (BET) Inhibitors with Selectivity for the Second Bromodomain” (J Med Chem, 2018).

Columns and labels:
[1] = buffer, pH 7.4
Description: Chromatographic hydrophobicity index, log D of the compound at pH 7.4 by HPLC method

[2] = biological target: Bromodomain-containing protein 4 (Homo sapiens, UniProt O60885, Y97A)
[3] = biological target: Bromodomain-containing protein 4 (Homo sapiens, UniProt O60885, Y390A)
[4] = system: PBMC; assay: cells; conditions: Homo sapiens, read-out: pIC50 (converted)
Description: Antiinflammatory activity in human PBMC assessed as inhibition of LPS-induced MCP1 release preincubated for 30 mins followed by LPS challenge measured after 24 hrs by immunoassay

**Q.** For `CC(=O)N1c2ccccc2N(Cc2ccccc2CO)CC1C1CC1` (single isomer, unassigned), which logD [1] is on record?
**A.** 4.7

**Q.** And the IC50 [2]?
**A.** 200 nM

**Q.** And the IC50 [3]?
**A.** 15800 nM

**Q.** And the IC50 [4]?
**A.** 1000 nM
